According to US4912092A, “Methods for increasing extracellular adenosine and for stabilizing mast cells” (The Regents of the University of California, priority 1987, dated 1990):
Values belong to the compound of their own block, whether it stands above or below them.

Legend:
[1] = target: T1, AMP deaminase (Homo sapiens, UniProt Q01433); test: Inhibition of AMP deaminase (14C-AMP to 14C-IMP conversion); assay type: biochemical
T1 construct: endogenous in cells
T1 sequence (Q01433 1-825): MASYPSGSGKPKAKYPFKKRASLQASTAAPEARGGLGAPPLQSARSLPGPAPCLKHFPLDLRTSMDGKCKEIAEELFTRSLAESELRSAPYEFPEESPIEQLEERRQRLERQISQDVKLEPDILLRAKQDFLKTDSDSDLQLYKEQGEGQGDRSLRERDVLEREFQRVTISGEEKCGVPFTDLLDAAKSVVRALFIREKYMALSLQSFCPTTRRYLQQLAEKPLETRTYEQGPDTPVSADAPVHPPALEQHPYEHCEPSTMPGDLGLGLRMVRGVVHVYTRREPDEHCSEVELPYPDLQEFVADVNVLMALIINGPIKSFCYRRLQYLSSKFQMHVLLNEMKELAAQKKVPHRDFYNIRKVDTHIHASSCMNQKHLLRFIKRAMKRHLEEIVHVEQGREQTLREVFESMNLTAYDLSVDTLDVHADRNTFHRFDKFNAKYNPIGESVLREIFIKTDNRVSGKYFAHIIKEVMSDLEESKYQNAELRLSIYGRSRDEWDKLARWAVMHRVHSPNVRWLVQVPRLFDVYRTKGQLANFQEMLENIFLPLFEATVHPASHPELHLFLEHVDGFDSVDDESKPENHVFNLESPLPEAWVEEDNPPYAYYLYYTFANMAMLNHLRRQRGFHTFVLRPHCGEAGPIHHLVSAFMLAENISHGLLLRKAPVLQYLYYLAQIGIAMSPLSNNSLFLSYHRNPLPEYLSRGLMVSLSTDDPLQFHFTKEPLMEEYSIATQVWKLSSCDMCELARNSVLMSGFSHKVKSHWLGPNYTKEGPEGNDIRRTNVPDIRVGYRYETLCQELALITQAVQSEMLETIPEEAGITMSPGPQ
Protocol: The phosphorylated forms are referred to as AICA ribotide and ribavirin monophosphate, respectively. Using 200 μM of each ribotide, AMP deaminase was inhibited 38% and 54%, respectively.

[2] = test system: granulocytes and endothelial cells; test: Granulocyte/endothelial cell interaction, intravital microscopy of mesentery microvessels; assay type: in vivo, rat; settings: superfusion with 20 μM, approximately 2 μM in the vessel
Protocol: The parameter measured was the fracture stress between the two cell types.
These studies were performed by intravital microscopy filming of granulocytes in rat mesentary microvessels. The rolling velocity of granulocytes compared to the streaming velocity of red cells was calculated before and after the administration of adenosine.

[3] = test system: Mouse bone marrow-derived mast cells; assay type: cell-based
Protocol: By preventing mast cell degranulation, it is possible to prevent or control a patient's allergic response. Bone marrow obtained from Balb/C mice femurs was cultured in a 1:1 mixture of Razin media and conditioned media, produced by co-culturing splenocytes from C57B1/6J and C3H mice in the presence of Concanavalin A as described by Razin et al. in the Proc. Natl. Acad. Sci. USA 28: 2559-2561, 1981. After weekly passaging and at least 15 days in tissue culture, the resulting cells were 90% pure mast cells and 95% viable as assessed by Trypan blue exclusion. Cells exposed to ribavirin in culture were washed three times prior to use in experiments. Parallel cultures of cells grown in media alone were used as controls for pharmacologically manipulated mast cells. Cell growth was assessed by counting cells at particular time points and comparing actual numbers of ribavirin-treated cells to numbers of cells grown in media alone.
β-hexosaminidase was chosen as a representative granule-associated, preformed mast cell mediator because it is easily quantitated, and its release nearly identically parallels that of histamine. Mouse bone marrow-derived mast cells were centrifuged at 200×g for 5 minutes, washed three times in Tyrode's buffer lacking divalent cations, sensitized for 30 minutes at 37° C. with anti-DNP ([…]) IgE (1 μg/10^6 cells) and challenged with either DNP-BSA antigen (175 ng/3×10^5 cells) or A23187 (10 μg/ml/3×10^5 cells) in 400 μl of complete Tyrode's buffer for 10 minutes at 37° C. Reaction mixtures were centrifuged at 200×g for 10 minutes, and supernatant and pellet β-hexosaminidase concentrations were assayed by the hydrolysis of p-nitrophenyl-β-D-glucosamide as described in Schwartz et al. in J. Immunol. […] Spontaneous β-hexosaminidase release was determined in unchallenged cells. The net % of β-hexosaminidase released is defined as follows: [formula] where [β-hex] is β-hexosaminidase and super. is supernatant. When exogenous adenosine was present in reaction mixtures, it was added simultaneously with the secretagogue.

[4] = test system: HPRT- neuroblastoma cells; test: Adenosine excretion by ionophore-stimulated HPRT- neuroblastoma cells; assay type: cell-based; settings: pretreatment
Protocol: (§1) The history and properties of the cell line have been described by Hershfield et al. in Science, Vol. 197, p. 1284, 1977.
(§2) Catabolism of cellular ATP stores was stimulated by adding either 2-deoxyglucose or a calcium ionophore. At various times, the amount of adenosine released by the cells into the supernatant, or the amount of nucleotides remaining in the cells, was determined by mixing 30 μl of chilled 4.4N perchloric acid with 300 μl of supernatants, or by adding 300 μl of chilled 0.4N perchloric acid to the cells collected as pellets and centrifuging the mixtures at 500×G for 10 minutes at 4° C. […] 1245, 1975. Following centrifugation at 1500×G for three minutes at 4° C., the aqueous phase is removed and frozen at -20° C. until assayed for adenosine, inosine, or for nucleotides. Adenosine was evaluated isocratically on a C-18 microBondapak reverse phase column equilibrated with 4 millimolar potassium phosphate, (pH 3.4):acetonitrile 60% in water (95:5 v/v) buffer. Adenosine elutes at 8-10 minutes, and its identity was confirmed by its sensitivity to adenosine deaminase and by spiking with adenosine standards. The extracted samples from the cell pellet were analyzed for nucleotides by high pressure liquid chromatography on a Whatman Partisil-10 (SAX) column equilibrated with 10 millimolar potassium phosphate, pH 3.78, and eluted with a linear gradient to a 0.25 molar potassium phosphate, 0.5 molar KCl, pH 3.45. […] Peaks were quantitated by comparison with high pressure liquid chromatography analysis of suitable standards.
To induce ATP catabolism, the growth medium was replaced by medium containing micromolar amounts of the calcium ionophore A23187 and 1.0 μM deoxycoformycin.

[5] = test system: human splenic lymphoblast cell line (WI-L2); test: Adenosine excretion by human lymphoblasts during ATP breakdown (2-deoxyglucose); assay type: cell-based; settings: three-hour preincubation and four-hour incubation during 2-deoxyglucose treatment (FIGS. 8, 9)
Protocol: as §1, §2
Cells were grown to about 0.5×10^6 cells/ml (mid-log phase) in FIG. 2 and to about 1.0×10^6 cells/ml (early stationary phase) in FIGS. 7-9.

SMILES: NC(=O)c1ncn([C@@H]2O[C@H](COP(=O)(O)O)[C@@H](O)[C@H]2O)c1N [AICA ribotide]
inhibition at 200 µM ([1]; read-out: AMP deaminase inhibited): 38%

SMILES: Nc1ncnc2c1ncn2[C@@H]1O[C@H](CO)[C@@H](O)[C@H]1O [Adenosine, 9-β-D-ribofuranosyladenine]
decrease of fracture stress between granulocytes and endothelial cells [2]: by a factor of two | rolling velocity of granulocytes in microvessels [2]: twofold increase

AMP deaminase inhibited ([1]; 200 μM ribotide, cytoplasmic lysates from a human lymphoblast line): 54%
SMILES: NC(=O)c1ncn([C@@H]2O[C@H](COP(=O)(O)O)[C@@H](O)[C@H]2O)n1 [ribavirin monophosphate]

SMILES: NC(=O)c1ncn([C@@H]2O[C@H](CO)[C@@H](O)[C@H]2O)n1 [ribavirin, 1-β-D-ribofuranosyl-1H-1,2,4-triazole-3-carboxamide]
mast cell mediator content and cell viability [3]: did not alter | preformed mediator release ([3]; 1 μM for six days): inhibits mediator release significantly | β-hexosaminidase release ([3]; 10 μM added at the time of mast cell stimulation): does not affect | net β-hexosaminidase release versus controls ([3]; 1, 10, or 20 μM for six days, A23187 challenge (FIG. 11)): significantly less | β-hexosaminidase release versus cells cultured in media alone ([3]; three to seven days in 10 μM, washed, A23187 challenge (FIG. 10), p<0.05): marked attenuation | spontaneous release of β-hexosaminidase versus control cells ([3]; unchallenged cells): similar | correction of the twofold lower adenosine secretion of HPRT-deficient cells [4]: can be corrected by pretreatment | adenosine release from lymphoblasts [5]: increased adenosine release
